In data set [1] the test system is HEK293 cells or Huh7 cells. The data set is described as follows: In vitro transduction assay, AAV8/luc with peptides. Type of data set: cell-based, human. To be noted: 10000 vg AAV8/luc incubated with peptides 2 h at 4° C.; both cell lines; 48 h; vs AAV8 only. How it is done: In vitro transduction assay. At least 4-5 h prior to AAV transduction, cells were seeded in 48-well plates with a density of 1E+05 cells each well. Cells were infected with 1E+04 vector genomes (vg) of AAV8/luc virus per cell and harvested after 48 h. Luciferase activity was measured following manufacturer's instruction (Promega, Madison, WI).
The complex of AAV8 and peptides influences AAV8 transduction in vitro and in vivo. To identify the potential and functional peptides that enhanced AAV8 transduction, we screened several reported peptides as shown in Table 5 and Table 6. First, we tested the cytotoxicity of peptides at different concentrations on cells. […] After that, we performed the transduction assay in vitro. We incubated the 10000 vg AAV8/luc and peptides for 2 h at 4° C., and then applied the mixture to HEK293 cells or Huh7 cells. After 48 h, the cell lysate was collected for luciferase analysis.

A further data set addresses T1, mouse TfR1 (Mus musculus, UniProt Q62351).
T1 construct: expressed in transfected cells; host or cells: CHO-TRVB cells (devoid of endogenous TfR1)
The data set is described as follows: Immunofluorescence assay on CHO-TRVB cells. Type of data set: binding. Particulars: 5-FAM-THR. As for the experimental part:
Immunofluorescence. Plasmids mCherry-TFR-20 and mCherry-mTfR-20 were separately transfected into the 50-70% confluent CHO-TRVB cells grown on glass coverslips using lipofectamine 3000 reagent (Invitrogen, USA). After 48 h post-transfection, the coverslips were washed and incubated with 1 nM 5-FAM-THR at 37° C. for 1 h, then cells were acid-washed with 0.2 M glycine/HCl, pH 2.2, and fixed in 4% paraformaldehyde for 30 min at 4° C. Finally, DAPI was used at a 1:5,000 dilution for 5 min at RT. Coverslips were mounted and imaged on the Olympus IX-83 fluorescence microscope.

For data set [2], the system named is C57BL/6 mice. Put plainly: In vivo luciferase imaging after retro-orbital injection of AAV8/luc with peptides. Details: species or system mouse.
Procedure: (§1) Animal study. […] Mice were administered with AAV8/Luc incubated with peptides via retro-orbital injection. Luciferase expression was imaged at the indicated time points using a Xenogen IVIS Lumina (Caliper Lifesciences, Waltham, MA) following intraperitoneal injection of D-luciferin substrate (Nanolight Pinetop, AZ). Bioluminescent images were analyzed using Living Image (PerkinElmer, Waltham, MA). At various time points after injection, blood was collected from the retro-orbital plexus, and the viral titers were tested by qPCR.
Data set [3] has as its system C57BL/6 mice. The data set is described as follows: Quantitation of luciferase expression in tissues. The data set is classed as in vivo, mouse. How it is done:
Quantitation of luciferase expression in tissues. Animals utilized for imaging studies were sacrificed after one-week post imaging work, and the tissues of the heart, liver, spleen, skeletal muscle and brain were collected, and were minced and homogenized in passive lysis buffer. Then the lysates were centrifuged at 10,000 rpm for 5 minutes to remove cellular debris. Supernatant was transferred to 96-well plates for luciferase activity analysis as described above. Total protein concentration in tissue lysates was measured using the Bradford assay (Bio-Rad Laboratories, Philadelphia, PA).

The subject of data set [4] is C57BL/6 mice. Put plainly: Measurement of AAV genome copy number in tissue. The data set is classed as in vivo, mouse. How it is done:
Measurement of AAV genome copy number in tissue. Total gDNA from different minced tissues was isolated with the DNeasy blood & tissue kit (Qiagen, USA). Luciferase gene was measured by qPCR assay. Mouse-lamin gene served as an internal control.

The next data set relates to Huh7 or HEK293 cells. Put plainly: Neutralization assay (Nab titer). Type of data set: cell-based, human. Particulars: THR at different concentrations. How it is done:
Neutralization assay. Huh7 or HEK293 cells were seeded in 48-well plates with a density of 5E+04 cells each well. The complex of AAV8/luc and different concentrations of THR was incubated at 4° C. for 2 h, then, two-fold dilutions of the mouse AAV8 sera were incubated with 1E+04vg of AAV8/luc virus or the complex of AAV8/luc and THR per cell for 1 h at 37° C. The final mixture was added into cells and incubated at 37° C. for 48 h. Cells were lysed with passive lysis buffer (Promega, Madison, WI) and luciferase activity was measured. Nab titers were defined as the highest dilution for which luciferase activity was 50% lower than serum-free controls.

The subject of a further data set is Huh7 cells. Put plainly: AAV8 binding assay. The data set is classed as cell-based, human. To be noted: 4° C., 1 h; genome copy number normalized to GAPDH. As for the experimental part: AAV8 binding assay. The complex of AAV8/luc and THR or human apo-transferrin protein (Sigma, 616395, USA) was incubated at 4° C. for 2 h, 10000 vg AAV8/luc virus alone or the complex was added into Huh7 cells at a cell density of 4E+05 per well for 1 h at 4° C., and then washed with DPBS 3 times. Finally, genome DNA (gDNA) was extracted from the cells with the DNeasy blood & tissue kit (Qiagen, USA) and was quantified by qPCR with luciferase primers and reference GAPDH primers.

Data set [5] has as its system human transferrin binding to AAV8 virions. Put plainly: AAV8 competitive binding assay. Particulars: pre-incubation with AAV8, then human transferrin; pull down with transferrin antibody, qPCR. As for the experimental part: AAV8 competitive binding assay. For THR competitive binding analysis, 10 ul of Protein G resin (Thermo, USA) per system was incubated with 1 ug of human transferrin antibody or goat IgG antibody control at 4° C. overnight. […] After that, the mixture was added to the complex of protein G resin and transferrin antibody and incubated at 4° C. overnight. Finally, the complex was stringently washed three times with cold DPBS. DNA from the complex was extracted and applied for qPCR to determine AAV genome copy number per cell using luc specific primers.
To investigate whether THR also binds to the same location of AAV8 virions as human serum proteins, we performed a competitive assay. […] The transferrin antibody was used to pull down transferrin bound AAV8 virions and AAV8 gene copy number was measured by qPCR.
A general note: Real-time PCR tracks product formation cycle by cycle.

The nature of data set [6]: AAV9 brain transduction with THR after systemic administration. The data set is classed as in vivo.
In data set [7] the test system is C57BL/6 mice. Particulars: 1E+11 vg each mouse, intravenous; 5 min to 48 h; vs AAV8/luc.
Procedure: as §1

“Also recorded” adds a separate entry of the source. Ends that are not written are not given here.

T1 sequence (Q62351 whole entry): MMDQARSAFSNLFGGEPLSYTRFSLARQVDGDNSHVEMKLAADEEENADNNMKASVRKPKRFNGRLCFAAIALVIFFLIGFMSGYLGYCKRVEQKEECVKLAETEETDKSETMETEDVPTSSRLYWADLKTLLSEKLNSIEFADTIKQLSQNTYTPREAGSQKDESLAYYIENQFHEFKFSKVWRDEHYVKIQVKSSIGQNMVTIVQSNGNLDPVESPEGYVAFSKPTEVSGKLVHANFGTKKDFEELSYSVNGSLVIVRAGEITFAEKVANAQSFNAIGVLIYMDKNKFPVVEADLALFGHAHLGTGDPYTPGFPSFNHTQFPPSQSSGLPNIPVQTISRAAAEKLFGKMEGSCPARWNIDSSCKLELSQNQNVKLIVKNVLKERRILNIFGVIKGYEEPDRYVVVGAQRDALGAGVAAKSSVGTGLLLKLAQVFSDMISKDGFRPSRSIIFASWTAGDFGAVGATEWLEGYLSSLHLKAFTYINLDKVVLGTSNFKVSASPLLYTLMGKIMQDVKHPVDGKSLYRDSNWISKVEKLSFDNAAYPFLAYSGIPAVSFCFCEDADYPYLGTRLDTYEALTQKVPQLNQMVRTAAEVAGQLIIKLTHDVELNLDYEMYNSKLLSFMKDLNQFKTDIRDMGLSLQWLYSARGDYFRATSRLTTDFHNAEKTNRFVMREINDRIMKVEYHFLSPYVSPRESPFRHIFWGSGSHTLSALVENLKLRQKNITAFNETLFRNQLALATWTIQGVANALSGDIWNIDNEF

On to THRPPMWSPVWP-NH2 [THR], for which the “AAV8 transduction (luciferase)” value in data set [1] was “significantly enhanced AAV8 transduction; also recorded: the most significant increase of AAV8 transduction”. For the same substance, the “interaction with mouse TfR1” value at mouse TfR1 is listed as “could interact with mouse TfR1”. In the data set with C57BL/6 mice [2] (0.1 mM peptide + 5E+10 vg AAV8/luc, 7th day), the “AAV8 transduction in the whole body, especially brain (imaging)” value is “significantly increased AAV8 transduction overall; also recorded: significantly enhances AAV8 transduction in vivo, especially in the brain”. For the same substance, the “transgene expression in the liver (imaging)” value in the data set with C57BL/6 mice [2] (0.1 mM peptides + 5E+10 vg AAV8/luc, retro-orbital vein, 7th day) is “higher”. In addition, in the data set with C57BL/6 mice [2] (1E+11 vg each mouse, AAV8-0.1 mM THR), the “AAV8 transduction in whole body and brain (imaging), high dose” value is “enhanced the AAV8 transduction in both the whole body and the brain”. In addition, the “AAV8 liver transduction (imaging), THR mixed just before injection” value in the data set with C57BL/6 mice [2] (AAV8/0.1 mM THR, no pre-incubation) was “blocked AAV8 liver transduction”. In addition, the “luciferase imaging signal, dose dependence” value in the data set with C57BL/6 mice [2] (different concentrations of THR + 5E+10 particles AAV8/luc) was “stronger imaging signals; also recorded: enhances the AAV8 transduction in vivo in a dose-dependent manner”. Besides, the “AAV8 brain transduction (luc expression and genome number)” value in the data set on C57BL/6 mice [3] (0.1 mM peptides + 5E+10 vg AAV8/luc) was “increased AAV8 transduction in the brain”. In addition, the “luciferase expression and virus distribution in the brain, THR mixed just before injection” value in the data set with C57BL/6 mice [3] (AAV8/0.1 mM THR, no pre-incubation, vs AAV8) is given as “did not observe a significant difference”. The “AAV genome copy number in the brain” value in the data set with C57BL/6 mice [4] (0.1 mM peptides + 5E+10 vg AAV8/luc, vs AAV8 only) was “much higher”. In addition, in the data set with C57BL/6 mice [4] (three groups with different THR concentrations + 5E+10 particles AAV8/luc), the “gene copy number in liver, brain and spleen” value is given as “significantly higher enhancement than the control group; also recorded: more vector genome copy number in the brain”. In the data set with Huh7 or HEK293 cells, the “AAV8/luc neutralization titer (Nab titer)” value was “did not interfere with the AAV8/luc neutralization titer; also recorded: does not interfere with the AAV8 biology”. In addition, the “AAV8 virions binding to the Huh7 cells surface” value in the data set with Huh7 cells was “dramatically increased AAV8 virions binding; also recorded: enhanced the binding ability of AAV8 dose dependently”. Moreover, in data set [5], the “inhibition of transferrin binding to AAV8” value was “competes with human transferrin binding to AAV8”. The “AAV9 brain transduction after systemic administration” value in [6] is recorded as “failed to enhance AAV9 brain transduction”. Also, the “blood clearance of AAV8” value in the data set with C57BL/6 mice [7] was “decreasing the AAV8 clearance in the blood”.

These data come from US12281335B2, “Methods and compositions for delivery of viral vectors across the blood-brain barrier” (priority 2017, dated 2025).
